Consider two compounds from EP0920324B1, “PURE BIOLOGICALLY ACTIVE COLISTIN, ITS COMPONENTS AND A COLISTIN FORMULATION FOR TREATMENT OF PULMONARY INFECTIONS” (PATHOGENESIS CORPORATION, priority 1996, dated 1998).

A short description of series [1]: Gravimetric titration with HCl to determine pKa.
Description: 107 mg of dry free base was suspended in 10.7 ml of deionized water and 1.21 M HCl was added under constant measurement of pH.
In order to determine the pKa of colistin component IV by titration, 107 mg of dry free base was suspended in 10.7 ml of deionized water in a 20 ml glass screwcap vial and stirred by magnetic stirrer. A calibrated Beckman Phi-10 pH meter with a Futura Plus combination electrode was placed in the suspension and the pH of the solution was monitored during the addition of 1.21 M HCl.
A further series concerns Pseudomonas aeruginosa. The series is described as follows: Time kill kinetic studies (bactericidal activity). The format is cell-based. The method, then:
Henry D. Isenberg, ASM, Washington, DC (1992). The exact procedure is described in Example 14.
Briefly, tests were similar to those used for determining MICs, except that the final test volume was larger (10 mL) to allow sampling at various time points. […] Cultures were incubated at 37°C. At initial set-up and at various time-points, cultures were plated, with or without further dilution, onto sheep blood agar plates. Plates were incubated for 18-24 hours, and the number of CFU/mL was determined and plotted to determine the percentage of surviving organisms and the time required to achieve 99.9% killing. Results are seen in Figure 15.
Colony-forming unit (CFU) per ml were determined and plotted against drug exposure time in hours.
Time kill kinetic studies were performed as described in (Antimicrobial Susceptibility Testing, Section 5.16. Tests to assess bactericidal activity, in Clinical Microbiology Procedure Handbook (supra).
Tests were set in the same way used for determining MICs (Example 13), except that the final test volume was larger (10 mL) to allow sampling at various time points. Cultures were incubated at 37°C. At initial set-up and at various desired time-points, cultures were sampled and plated (with or without further dilution) onto sheep blood agar plates. Plates were incubated for 18-24 hours, and the number of CFU/mL was determined and plotted to determine the percentage of surviving organisms and the time required to achieve 99.9% killing.

The nature of series [2]: Solution pH monitored over time after dissolution. The format is physicochemical. As to conditions: 10.0, 15.0 and 20.0 mg/ml in water. The method, then:
These values correspond to concentrations of 3.7 mg/ml, 5.6 mg/ml and 7.4 mg/ml colistin base equivalent. Solution pH was monitored continuously at various times from 1 minute to 180 minutes and pH values and times were recorded.
Determination of component IV stability at physiologic pH was made by dissolving purified colistin component IV sulfate or hydrochloride at a concentration of 20 mg/ml in sterile water containing 120 mM NaCl. The solution was mixed and pH was monitored. A 10 N NaOH solution was used to adjust the solution pH to 6.95-7.00. Results are seen in Figure 16.
These values correspond to concentrations of 3.7 mg/ml, 5.6 mg/ml and 7.4 mg/ml colistin base equivalent. Solution pH was then monitored continuously using a Beckman Phi-10 pH meter fitted with a Beckman Futura Plus combination electrode calibrated at pH 4.0 and 7.0 as per manufacturer's instructions prior to use. At various times from 1 minute to 180 minutes, pH values and times were recorded.

The nature of series [3]: Jet nebulization (Pari LC Jet nebulizer), aerosol characterized by laser diffraction particle analyzer. The class given is physicochemical. The method, then:
Colistin component IV sulfate was dissolved in 120 mM sodium chloride, and the pH was adjusted to 7.0 with 1 molar sodium hydroxide.
Four ml of solution to be nebulized was placed in a Pari LC Jet nebulizer fitted with a Pulmonaide Compressor (DeVilbiss Model 5650D) with an air flow rate of 4-6 liters/minute. Aerosols generated are characterized by passing through a laser diffraction particle analyzer (Malvern Mastersizer X). Each formulation was analyzed multiple times to determine reproducibility of results, which were expressed as total obscuration time, mass median average diameter, and respirable fraction.
Results are shown in Figure 18, which is a comparison of the-times required for aerosolization of 4 mL of the three solutions. The two drug solutions were analyzed three times, and saline was analyzed four times. Bars show standard deviations of measurements.
Colistin component IV sulfate or hydrochloride formulations were as described above in Example 15.
Four ml of solution to be nebulized was placed in a Pari LC Jet nebulizer fitted with a Pulmonaide Compressor, DeVilbiss Model 5650D, with an air flow rate of 4-6 liters/minute. Aerosol generated was characterized by passing through a Malvern Mastersizer X laser diffraction particle analyzer. Each formulation was analyzed multiple times to determine reproducibility of results, which were expressed as total obscuration time, mass median particle diameter, and respirable fraction.
Mass median particle diameters were expressed as average ± standard deviation (n) for aerosols.
Average respirable fractions were calculated as average percentage of particles ranging from 1 micron to 6 microns in diameter within the aerosol over time.

The conditions of series [4]: human, in vivo; cited from earlier work.
The conditions of series [5]: human, in vivo, iv; cited from earlier work.
The conditions of series [6]: human, in vivo, 1 h; cited from earlier work.
Where [7] appears, read: average ± standard deviation, n = 3, 20 mg/ml solutions.

Where a SMILES comes first, the peptide text is derived from it. Bridges are numbered along the chain shown (N, C = ends). [ ]: non-standard residue; d: D form. The star is where a group is joined. Octanoyl(6-Me) = CCC(C)CCCCC(=O)*; Dab = NCC[CH](N)C(=O)O

As a reminder, the pKa is the pH at which an ionisable group is half protonated. In the case of `CCC(C)CCCCC(=O)NC(CCN)C(=O)NC(C(=O)NC(CCN)C(=O)NC1CCNC(=O)C(C(C)O)NC(=O)C(CCN)NC(=O)C(CCN)NC(=O)C(CC(C)C)NC(=O)C(CC(C)C)NC(=O)C(CCN)NC1=O)C(C)O` (centres unmarked) [colistin component IV] ({Octanoyl(6-Me)}-[Dab]T[Dab][Dab][Dab]LL[Dab][Dab]T; lactam 4-C; configuration not given here), the pKa entry in series [1] (free base suspended in deionized water, titrated with 1.21 M HCl) is “approximately 9.0”; in series [1] (water), roughly 9.

With colimycin, the “eradication of the Pseudomonas aeruginosa organism” value with Pseudomonas aeruginosa (8 µg/mL, at 4 hours of testing) is recorded as “did not, even at 4 hours of testing, eradicate the Pseudomonas aeruginosa organism”. Further, the “killing of test organism” value in the series with Pseudomonas aeruginosa (16 µg/mL, at 3 hours) was “over 5 logs”. Further, the “time at which over 5 logs killing was shown” value in the series on Pseudomonas aeruginosa (64µg/mL) stood at 1.5 hours. For the same compound, in the series with Pseudomonas aeruginosa (freshly dissolved), the “concentration required for a similar level of killing (over 5 logs within 2 hours)” value was determined as 32 µg/ml. Moreover, the “pH of solution within 3 minutes” value in series [2] is given as greater than 7.5. Besides, the mean aerosolization time in series [3] (4 mL of 20 mg/ml solution, colistin component IV sulfate in 120 mM NaCl, isotonic, pH balanced, colimycin in 1/4 N saline, n = 3) turned out to be 10.53 min. In series [3] (setting [7]), the “average respirable fraction (particles ranging from 1 micron to 6 microns in diameter)” value is given as 58.77 ± 2.03 percentage and the “mass median particle diameter of the aerosol” value worked out at 4.11 ± 0.29 microns. Besides, the “patients reporting bronchoconstriction response as chest tightness” value in series [4] is “approximately 65%”. Besides, in series [5], the “occurrence of nephrotoxicity symptoms” value is reported as “about 5 % cases” and the “occurrence of neurotoxicity symptoms” value is reported as “about 29 % cases”. Further, the “drug converted to colistin in an hour” value in series [6] is listed as roughly 3%.
